Laboratory results published in patent publication US11426397B2, “Piperidinyl- and piperazinyl-substituted heteroaromatic carboxamides as modulators of GPR6” (TAKEDA PHARMACEUTICAL COMPANY LIMITED, priority 2017, dated 2022).

How the values were obtained:
[1] = test system: haloperidol-induced catalepsy; assay: In vivo Parkinson's disease model, haloperidol-induced catalepsy; parameters: species or system mice; conditions: mouse catalepsy model, PO
Source text: II. In Vivo Parkinson's Disease Model Haloperidol-Induced Catalepsy The motor symptoms of Parkinson's disease include akinesia, bradykinesia, rigidity, tremor and postural abnormalities and are associated with the loss of nigral dopaminergic cells and a decline in striatal dopamine levels. Administration of haloperidol to rodents leads to a transient Parkinsonian-like state that is reversed by the administration of levodopa and other drugs that have been clinically validated for the treatment of Parkinson's disease. See Duty, S. & Jenner, P. Br. J. Pharmacol. 164:1357-1391 (2011). Haloperidol antagonizes dopamine D2, and to a lesser extent, D1 receptors in medium spiny neurons that comprise the indirect and direct pathways of the motor circuit, respectively. The resultant block of striatal dopamine transmission results in abnormal downstream firing within the basal ganglia circuits that is manifest as symptoms of muscle rigidity and catalepsy. Catalepsy has been postulated to reflect the clinical features of Parkinson's disease, whereby patients experience an inability to initiate movements. Male C57B16 mice weighing 25-35 g are used. Catalepsy is induced by the subcutaneous (sc) administration of the dopamine receptor antagonist haloperidol (0.45 mg/kg) at least 30 minutes before testing the animals on a vertical grid test. For this test, the rats or mice are placed on a wire mesh cover of a 25 cm×43 cm plexiglass cage placed at an angle of about 70 degrees with the bench table. The subject is placed on the grid with all four legs abducted and extended (“frog posture”). The use of such an unnatural posture is essential for the specificity of this test for catalepsy. The time span from placement of the paws until the first complete removal of one paw (descent latency) is measured maximally for 120 seconds for rats. For mice, the front paws of the mouse is placed on a horizontal metal bar raised 2″ above a Plexiglas platform and time is recorded for up to 30 seconds per trial. The test ends when the animal's front paws return to the platform or after 30 seconds. The test is repeated three times and the average of the three trials is reported as the intensity index of catalepsy. Animals evaluated at 30 minutes after dosing are reevaluated at 60 or 90 minutes post dosing of haloperidol. Efficacy of GPR6 modulators to reverse haloperidol induced catalepsy is measured 30 minutes, 60 minutes, and/or 90 minutes after dosing the subjects with 0.45 mg/kg ip (intraperitoneal injection) of haloperidol along with the GPR6 modulator test compound. A representative number of compounds of Formula 1 are administered in a dose range from 0.1 to 100 mg/kg (po in 0.5% methyl cellulose) in conjunction with haloperidol. […]

[2] = molecular target: T1, GPR6 receptor expressed in CHO-K1 cells (Homo sapiens, UniProt P46095); assay: In vitro inhibition of cAMP (EC50), cell-based HTRF cAMP assay; conditions: inhibition of constitutive cAMP activity of GPR6 in CHO-K1 cells
T1 construct: expressed in transfected cells
Method in brief: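 Cellular cAMP measured by Lance Ultra HTRF (Eu-cAMP tracer, ULight anti-cAMP), with EC50 fitted by four-parameter logistic. Test compounds sat on cells 45 min, 37 °C, in pH 7.4 Ringer's with 300 μM IBMX and 0.5% BSA; GPR6 in CHO-K1 induced beforehand by doxycycline, 2 μg/mL, 20 h.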

T1 sequence (P46095 whole entry): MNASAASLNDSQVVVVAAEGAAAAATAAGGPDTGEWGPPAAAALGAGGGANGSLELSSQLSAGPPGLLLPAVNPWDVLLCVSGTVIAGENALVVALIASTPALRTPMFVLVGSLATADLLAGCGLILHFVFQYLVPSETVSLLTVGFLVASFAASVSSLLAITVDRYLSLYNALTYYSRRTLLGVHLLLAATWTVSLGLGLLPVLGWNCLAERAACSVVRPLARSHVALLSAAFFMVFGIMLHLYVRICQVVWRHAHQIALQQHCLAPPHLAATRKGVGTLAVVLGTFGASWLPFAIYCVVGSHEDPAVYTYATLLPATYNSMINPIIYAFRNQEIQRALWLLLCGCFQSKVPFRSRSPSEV

pEC50, in vitro inhibition of cAMP [2]	Structure (SMILES)	other results
6.5	COc1cc(Cl)c(Cl)cc1C(=O)Nc1cc(C#N)ccc1N1CCC(Oc2ccc(F)cc2F)CC1 [Example 190, 4,5-dichloro-N-(5-cyano-2-(4-(2,4-difluorophenoxy)piperidin-1-yl)phenyl)-2-methoxybenzamide]	
7.3	COc1ccc(OC2CCN(c3ccc(C#N)cc3NC(=O)c3cccn(C)c3=O)CC2)c(F)c1 [Example 29, N-(5-cyano-2-(4-(2-fluoro-4-methoxyphenoxy)piperidin-1-yl)phenyl)-1-methyl-2-oxo-1,2-dihydropyridine-3-carboxamide]	
6.3	Cn1cccc(C(=O)Nc2cc(C#N)ccc2N2CCC(Oc3c(F)cccc3F)CC2)c1=O [Example 13, N-(5-cyano-2-(4-(2,6-difluorophenoxy)piperidin-1-yl)phenyl)-1-methyl-2-oxo-1,2-dihydropyridine-3-carboxamide]	
5.9	COc1ncc(Cl)cc1C(=O)Nc1cc(C#N)ccc1N1CCC(Oc2ccc(F)cc2F)CC1 [Example 193, 5-chloro-N-(5-cyano-2-(4-(2,4-difluorophenoxy)piperidin-1-yl)phenyl)-2-methoxynicotinamide]	
6.6	CCOc1ncccc1C(=O)Nc1cc(C#N)ccc1N1CCC(Oc2ccc(F)cc2F)CC1 [Example 28, N-(5-cyano-2-(4-(2,4-difluorophenoxy)piperidin-1-yl)phenyl)-2-ethoxynicotinamide]	
6.6	Cn1cc(C(=O)Nc2cc(C#N)ccc2N2CCC(Oc3ccc(F)cc3F)CC2)nn1 [Example 145, N-(5-cyano-2-(4-(2,4-difluorophenoxy)piperidin-1-yl)phenyl)-1-methyl-1H-1,2,3-triazole-4-carboxamide]	
6.8	Cc1csc(C(=O)Nc2cc(C#N)ccc2N2CCC(Oc3ccc(F)cc3F)CC2)n1 [Example 51, N-(5-cyano-2-(4-(2,4-difluorophenoxy)piperidin-1-yl)phenyl)-4-methylthiazole-2-carboxamide]	
6.4	Cn1cccc(C(=O)Nc2cc(C#N)ccc2N2CCC(Oc3cccc(F)c3)CC2)c1=O [Example 12, N-(5-cyano-2-(4-(3-fluorophenoxy)piperidin-1-yl)phenyl)-1-methyl-2-oxo-1,2-dihydropyridine-3-carboxamide]	
6.7	COc1ccc(C)cc1C(=O)Nc1cc(C#N)ccc1N1CCC(Oc2ccc(F)cc2F)CC1 [Example 237, N-(5-cyano-2-(4-(2,4-difluorophenoxy)piperidin-1-yl)phenyl)-2-methoxy-5-methylbenzamide]	
6.6	Cc1cccc2ncc(C(=O)Nc3cc(C#N)ccc3N3CCC(Oc4ccc(F)cc4F)CC3)c(=O)n12 [Example 187, N-(5-cyano-2-(4-(2,4-difluorophenoxy)piperidin-1-yl)phenyl)-6-methyl-4-oxo-4H-pyrido[1,2-a]pyrimidine-3-carboxamide]	

More lines, now with the values behind:

Structure (SMILES)	pEC50, in vitro inhibition of cAMP [2]	other results
COc1ncccc1C(=O)Nc1cnc(C)nc1N1CCC(Oc2ccc(F)cc2F)CC1 [Example 18, N-(4-(4-(2,4-difluorophenoxy)piperidin-1-yl)-2-methylpyrimidin-5-yl)-2-methoxynicotinamide]	6.8	% reversal ([1]; dose 1 mpk, time 30 minutes): 53%; % reversal ([1]; dose 1 mpk, time 90 minutes): 37%
COc1nc(C)ccc1C(=O)Nc1cnc(C(=O)N(C)C)cc1N1CCC(Oc2ccc(F)cc2F)CC1 [Example 283, 4-(4-(2,4-difluorophenoxy)piperidin-1-yl)-5-(2-methoxy-6-methylnicotinamido)-N,N-dimethylpicolinamide]	6.8	% reversal ([1]; dose 3 mpk, time 60 minutes): 47%
COc1ncccc1C(=O)Nc1cnc(C(=O)N(C)C)cc1N1CCC(Oc2ccc(F)cc2F)CC1 [Example 31, 4-(4-(2,4-difluorophenoxy)piperidin-1-yl)-5-(2-methoxynicotinamido)-N,N-dimethylpicolinamide]	7.1	% reversal ([1]; dose 1 mpk, time 60 minutes): 47%
COc1ccc(CN2CCN(c3ncc(C#N)cc3NC(=O)c3cn(C)nc3OC)CC2)cc1 [Example 157, N-(5-cyano-2-(4-(4-methoxybenzyl)piperazin-1-yl)pyridin-3-yl)-3-methoxy-1-methyl-1H-pyrazole-4-carboxamide]	6.7	
COc1ncc(F)cc1C(=O)Nc1cnc(C(=O)N(C)C)cc1N1CCC(Oc2ccc(F)cc2F)CC1 [Example 32]	7.0	
COc1ccc(OC2CCN(c3ccc(S(C)(=O)=O)cc3NC(=O)c3cn(CCF)nc3OC)CC2)c(F)c1 [Example 1, V-(2-(4-(2-fluoro-4-methoxyphenoxy)piperidin-1-yl)-5-(methylsulfonyl)phenyl)-1-(2-fluoroethyl)-3-methoxy-1H-pyrazole-4-carboxamide]	7.2	
COc1ccc(C(=O)N2CCN(c3ccc(C#N)cc3NC(=O)c3cccnc3OC)CC2)c(F)c1 [Example 284, N-(5-cyano-2-(4-(2-fluoro-4-methoxybenzoyl)piperazin-1-yl)phenyl)-2-methoxynicotinamide]	6.6	
COc1cccc(CN2CCN(c3ncc(C#N)cc3NC(=O)c3cn(C)nc3OC)CC2)c1 [Example 156, N-(5-cyano-2-(4-(3-methoxybenzyl)piperazin-1-yl)pyridin-3-yl)-3-methoxy-1-methyl-1H-pyrazole-4-carboxamide]	6.4	
COc1ncccc1C(=O)Nc1cc(C#N)ccc1N1CCN(C(=O)c2ccc(F)cc2F)CC1 [Example 93, N-(5-cyano-2-(4-(2,4-difluorobenzoyl)piperazin-1-yl)phenyl)-2-methoxynicotinamide]	6.3	
COc1ncccc1C(=O)Nc1cc(C#N)ncc1N1CCC(Oc2ccc(F)cc2F)CC1 [Example 261, N-(2-cyano-5-(4-(2,4-difluorophenoxy)piperidin-1-yl)pyridin-4-yl)-2-methoxynicotinamide]	7.2	
CCCNC(=O)c1cc(N2CCC(Oc3ccc(F)cc3F)CC2)c(NC(=O)c2cccnc2OC)cn1 [Example 254, 4-(4-(2,4-difluorophenoxy)piperidin-1-yl)-5-(2-methoxynicotinamido)-N-propylpicolinamide]	7.2	
COc1nn(C)cc1C(=O)Nc1cc(C#N)cnc1N1CCN(Cc2ccc(F)c(C#N)c2)CC1 [Example 154, N-(5-cyano-2-(4-(3-cyano-4-fluorobenzyl)piperazin-1-yl)pyridin-3-yl)-3-methoxy-1-methyl-1H-pyrazole-4-carbonamide]	6.5	
COc1nn(C)cc1C(=O)Nc1cc(C)cnc1N1CCC(Oc2ccc(F)cc2F)CC1 [Example 36, N-(2-(4-(2,4-difluorophenoxy)piperidin-1-yl)-5-methylpyridin-3-yl)-3-methoxy-1-methyl-1H-pyrazole-4-carboxamide]	7.0	
N#Cc1ccc(N2CCC(Oc3ccc(F)cc3F)CC2)c(NC(=O)c2csnn2)c1 [Example 116, N-(5-cyano-2-(4-(2,4-difluorophenoxy)piperidin-1-yl)phenyl)-1,2,3-thiadiazole-4-carboxamide]	5.9	
COc1ncccc1C(=O)Nc1cc(C#N)ccc1N1CCN(Cc2ccsc2)CC1 [Example 73, N-(5-cyano-2-(4-(thiophen-3-ylmethyl)piperazin-1-yl)phenyl)-2-methoxynicotinamide]	6.5	
COc1nc(C)cc(C)c1C(=O)Nc1cc(C#N)ccc1N1CCC(Oc2ccc(F)cc2F)CC1 [Example 80, N-(5-cyano-2-(4-(2,4-difluorophenoxy)piperidin-1-yl)phenyl)-2-methoxy-4,6-dimethylnicotinamide]	6.3	
